Test results from patent US8647835B2, “Methods for separation, characterization and/or identification of microorganisms using spectroscopy” (bio Mérieux, Inc., priority 2008, dated 2014).

How the values were obtained:
Format in all cases: cell-based
[1] = system: Streptococcus pneumoniae, strain WM-43; assay: Intrinsic fluorophores of S. pneumoniae pellet after detergent lysis buffer; details: for Flavin/NADH surrogate marker for viability: S. pneumoniae cell pellet; for Flavin / NADH / Tryptophan: intrinsic fluorophore level of S. pneumoniae cell pellet, detergent in 0.3M CAPS, pH 11.7; for NADH/Flavin: ratio of fluorescence signals of S. pneumoniae cell pellet
Description: (§1) Lysis buffers were prepared containing detergents of differing structure and lytic activity in a base buffer formulation of 0.3M CAPS, pH 11.7. These lysis buffers were functionally assessed using positive blood culture broth containing a clinical microorganism strain known to be sensitive to detergents and alkaline pH conditions, Streptococcus pneumoniae, strain WM-43. Parameters evaluated were microbial intrinsic fluorescence levels (Excitation-Emission Matrix spectra), separation efficiency, appearance of isolated microbial pellet, and Gram stain characteristics and viability of microorganisms recovered from the pellet beneath the density cushion.
(§2) The procedure was performed as follows:
(§3) Mix 2 parts of positive broth with 1 part of test lysis buffer, incubate in a 37 C water bath for 1 minute to lyse blood cells, then layer 0.5 mL of lysate over 0.2 mL of density cushion (14% w/v Iohexyl+1.93% w/v NaCl+10 mM Hepes, pH 7.4) dispensed into a 2-piece optical separation tube which was then hermetically sealed with a screw-cap. After centrifuging the tube in an Eppendorf® 5417R micrcentrifuge fitted with a A-8-11 swing out rotor (Eppendorf, New York) for 2 minutes at 10,000 rpm, the tube was placed into a custom-built adapter which coupled the base of the tube directly to a 400 micron fiber optic probe connected to a spectrofluorimeter (Fluorolog® 3 (HORIBA Jobin Yvon Inc., New Jersey), and a complete EEM scan was taken (Ex 260-850 nm; Em 260-1100 nm; every 5 nm). Following the scan, the supernatant was removed and the microbial pellet resuspended in 0.5 mL of Tryptic Soy Broth (TSB). Smears of the suspensions were prepared for Gram staining and twenty microliters of a 1:100 dilution were plated onto Sheep Blood Agar plates for viability estimation on a scale of NG (no growth) to 4+ (maximal growth).
The effect of the test detergents on the level of intrinsic fluorophores present within the S. pneumoniae cell pellet is shown in Table 5. As taught by the results presented in Example 3, the ratio of Flavin to NADH fluorescence is an excellent indicator of this sensitive microbe's health. Low ratios are associated with reduced microbial viability, such as observed with n-octyl glucoside and CHAPS detergents. The four groups represented in Table 5 fall into categories that directly correlate with the alterations observed in Gram reactivity of the S. pneumoniae cells recovered from the pellet (Table 4).

[2] = system: Streptococcus pneumoniae, strain WM-43; assay: Gram stain and viability of S. pneumoniae recovered from pellet after detergent lysis buffer; details: for Viability of Pellet: 1:100 dilution plated onto Sheep Blood Agar, scale NG to 4+
Description: as §1, §2, §3

[3] = system: S. pneumoniae strain, WM43; assay: Viability of recovered S. pneumoniae with lysis buffer / density cushion combinations (Example 7); details: irrespective of the makeup of the density cushion

Row | Compound | Flavin/NADH surrogate marker for viability [1] | Flavin [1] | NADH [1] | Tryptophan [1] | NADH/Flavin [1] | Viability of Pellet [2] | Gram Stain of Pellet, Bacteria (cocci): Gram positive ([2]; detergent at table concentration (0.45-3.0%) in 0.3M CAPS, pH 11.7, 1 minute 37 C, 'No organisms seen' applies to all cocci) | Gram Stain of Pellet, Bacteria (cocci): Gram negative ([2]; detergent at table concentration (0.45-3.0%) in 0.3M CAPS, pH 11.7, 1 minute 37 C) | effect on Gram reaction / Gram reactivity of S. pneumoniae isolate ([2]; desired lysis conditions of Example 6) | viability of the recovered S. pneumoniae cells [3]
1 | CCCCCCCCO[C@@H]1O[C@H](CO)[C@@H](O)[C@H](O)[C@H]1O [Detergent 1, n-octyl glucoside] | Low ratios | 71,678 | 33,268 | 606,171 | 0.5 | No growth | No organisms seen |  |  | 
2 | C[C@H](CCC(=O)NCCC[N+](C)(C)CCCS(=O)(=O)[O-])[C@H]1CC[C@H]2[C@@H]3[C@H](O)C[C@@H]4C[C@H](O)CC[C@]4(C)[C@H]3C[C@H](O)[C@]12C [Detergent 2, CHAPS] | Low ratios | 77,403 | 55,976 | 607,343 | 0.7 | Scant |  | Rare Gram |  | 
3 | CCCCCCCCCCCCOCCOCCOCCOCCOCCOCCOCCOCCOCCO [Detergent 6, nonaethylene glycol monododecyl ether] |  |  |  |  | 34.5 |  |  |  | relatively minor effect | not as high
4 | (Octylphenoxy)polyethoxyethanol [Detergent 4] |  | 38,703 | 1,300,815 | 1,019,649 | 33.6 |  |  |  |  | 
5 | polyoxyethylene (20) oleyl ether [Detergent 12] | significant improvement | 29,781 | 1,703,221 | 1,047,866 | 57.2 |  |  |  |  | 
